Laboratory results: patent publication US11752188B2, “Compositions and methods for nutritional supplements” (DailyColors Health Inc., priority 2020, dated 2023)
Read-outs that look alike come from different tables or passages of the source. Blank lines part the entries; values can stand above or below the molecule they belong to.

Experiments:
[1] = molecular target: T1, recombinant human CD73 (Homo sapiens, UniProt P21589); assay: CD73 in vitro enzymatic assay (colorimetric 630 nm); type: biochemical; conditions: TABLE 89
T1 construct: purchased BPS Bioscience 71184 (enzyme); kit #72055
T1 sequence (P21589 27-549): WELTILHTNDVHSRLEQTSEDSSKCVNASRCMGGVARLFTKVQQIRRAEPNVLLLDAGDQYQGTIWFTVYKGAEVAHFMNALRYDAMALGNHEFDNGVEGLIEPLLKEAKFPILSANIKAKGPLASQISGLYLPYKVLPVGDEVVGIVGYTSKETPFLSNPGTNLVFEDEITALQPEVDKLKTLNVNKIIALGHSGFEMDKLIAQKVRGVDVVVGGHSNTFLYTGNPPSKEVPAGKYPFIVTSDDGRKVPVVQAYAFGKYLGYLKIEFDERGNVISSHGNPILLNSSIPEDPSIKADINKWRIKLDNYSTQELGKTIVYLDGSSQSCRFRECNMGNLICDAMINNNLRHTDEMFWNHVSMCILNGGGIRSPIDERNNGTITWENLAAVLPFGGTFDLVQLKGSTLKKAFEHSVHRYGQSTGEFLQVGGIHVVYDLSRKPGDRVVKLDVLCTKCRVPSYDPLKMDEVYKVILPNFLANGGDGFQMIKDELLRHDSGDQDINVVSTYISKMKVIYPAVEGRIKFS
Excerpt: Here, D5 is the Yellow Blend, D9 is the Purple Blend, D21 is the Green Blend, D13 is the Red Blend, and D31 is CBD. As before, the red blend included Apple Extract, Pomegranate Extract, Tomato Powder, Beet; the green blend included Olive Extract, Rosemary Extract, Green Coffee Bean Extract, Kale; the orange/yellow blend included Onion Extract, Ginger Extract, Grapefruit Extract, Carrot; and the purple/blue blend included Grape, Blueberry Extract, Currant, Elderberry.
Assay Conditions: In general, all assays points were done by following the CD39 and CD73 Inhibitor Screening Assay Kit protocol (BPS Bioscience, #79278 and 72055, respectively). The CD73 enzymatic reactions were conducted in duplicate at room temperature for 30 minutes in a 50 μl mixture containing assay buffer, […], CD73 enzymes, and the test compound. Test compounds were preincubated with the enzyme for 30 minutes. Reactions were started by addition of the substrate. The 50 μl reactions were carried out in a 96-well transparent plate. After enzymatic reactions, 100 μl of Colorimetric Detection Reagent was added to the reaction mix. After a 15 minutes incubation, absorbance was measured using a Tecan plate reader at 630 nm.
Data Analysis: Enzyme activity assays were performed in duplicates at each concentration. The Absorbance intensity data were analyzed and compared. In the absence of the compound, the intensity in each data set was defined as 100% (Ce) activity. In the absence of enzyme, the intensity in each data set was defined as 0% (C0) activity.

[2] = molecular target: T2, recombinant human CD39 (Homo sapiens, UniProt P49961); assay: CD39 in vitro enzymatic assay (ATP, colorimetric 630 nm); type: biochemical;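 note: test compound preincubated 30 min with enzyme, then 30 min reaction with ATP at room temperature, absorbance after detection reagent, 100% activity without compound, 0% without enzyme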
T2 construct: purchased BPS Bioscience 71284 (enzyme); kit #79278
T2 sequence (P49961 1-510): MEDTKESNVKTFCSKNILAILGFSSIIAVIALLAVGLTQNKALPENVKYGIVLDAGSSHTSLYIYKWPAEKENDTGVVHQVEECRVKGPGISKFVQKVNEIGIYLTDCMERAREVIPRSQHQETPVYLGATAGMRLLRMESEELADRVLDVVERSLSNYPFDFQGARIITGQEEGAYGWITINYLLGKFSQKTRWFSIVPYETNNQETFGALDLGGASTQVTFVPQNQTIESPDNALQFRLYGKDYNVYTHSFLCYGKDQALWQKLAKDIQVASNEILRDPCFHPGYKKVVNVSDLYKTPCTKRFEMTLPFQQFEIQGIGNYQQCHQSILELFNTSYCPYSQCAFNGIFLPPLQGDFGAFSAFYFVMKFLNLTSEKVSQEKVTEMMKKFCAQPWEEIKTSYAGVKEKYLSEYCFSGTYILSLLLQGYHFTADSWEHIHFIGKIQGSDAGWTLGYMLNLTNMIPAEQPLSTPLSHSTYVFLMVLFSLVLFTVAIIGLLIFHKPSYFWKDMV
Method: The CD39 enzymatic reactions were conducted in duplicate at room temperature for 30 minutes in a 50 μl mixture containing assay buffer, ATP, CD39 enzymes, and the test compound. Test compounds were preincubated with the enzyme for 30 minutes. Reactions were started by addition of the substrate. The 50 μl reactions were carried out in a 96-well transparent plate. After enzymatic reactions, 100 μl of Colorimetric Detection Reagent was added to the reaction mix. After a 15 minutes incubation, absorbance was measured using a Tecan plate reader at 630 nm.

- Net absorbance Rep. 1 ([1]; 1 μM): 0.40
- Net absorbance Rep. 2 ([1]; 1 μM): 0.36
- inhibition at 1 µM ([1]; 1 μM): 13%
- activity at 1 µM ([1]; 1 μM, read-out: Activity (%) Rep. 1): 92%
- activity at 1 µM ([1]; 1 μM, read-out: Activity (%) Rep. 2): 82%
- Net absorbance Rep. 1 ([1]; 10 μM): 0.23
- Net absorbance Rep. 2 ([1]; 10 μM): 0.25
- inhibition at 10 µM ([1]; 10 μM): 44%
- activity at 10 µM ([1]; 10 μM, read-out: Activity (%) Rep. 1): 53%
- activity at 10 µM ([1]; 10 μM, read-out: Activity (%) Rep. 2): 58%
- Net absorbance Rep. 1 ([1]; 100 μM): 0.12
- Net absorbance Rep. 2 ([1]; 100 μM): 0.08
- inhibition at 100 µM ([1]; 100 μM): 78%
- activity at 100 µM ([1]; 100 μM, read-out: Activity (%) Rep. 1): 27%
- activity at 100 µM ([1]; 100 μM, read-out: Activity (%) Rep. 2): 17%
Molecule: O=c1c(O)c(-c2ccc(O)c(O)c2)oc2cc(O)cc(O)c12 [Quercetin]

- Activity (%) Rep. 1 ([2]; 0.001 μM, TABLE 79): 79%
- Activity (%) Rep. 2 ([2]; 0.001 μM, TABLE 79): 78%
- CD39 Inhibition (%) ([2]; 0.001 μM, TABLE 79): 21%
- Net absorbance Rep. 1 ([2]; 0.001 μM, TABLE 79): 0.42
- Net absorbance Rep. 2 ([2]; 0.001 μM, TABLE 79): 0.41
- Activity (%) Rep. 1 ([2]; 0.001 μM, TABLE 80): 99%
- Activity (%) Rep. 2 ([2]; 0.001 μM, TABLE 80): 90%
- Inhibition (%) ([2]; 0.001 μM, TABLE 80): 5%
- Net absorbance Rep. 1 ([2]; 0.001 μM, TABLE 80): 0.281
- Net absorbance Rep. 2 ([2]; 0.001 μM, TABLE 80): 0.254
- Activity (%) Rep. 1 ([2]; 0.001 μM, TABLE 81): 96%
- Activity (%) Rep. 2 ([2]; 0.001 μM, TABLE 81): 92%
- Inhibition (%) ([2]; 0.001 μM, TABLE 81): 6%
- Net absorbance Rep. 1 ([2]; 0.001 μM, TABLE 81): 0.51
- Net absorbance Rep. 2 ([2]; 0.001 μM, TABLE 81): 0.49
- Activity (%) Rep. 1 ([2]; 0.001 μM, TABLE 83): 86%
- Activity (%) Rep. 2 ([2]; 0.001 μM, TABLE 83): 89%
- Inhibition (%) ([2]; 0.001 μM, TABLE 83): 13%
- Net absorbance Rep. 1 ([2]; 0.001 μM, TABLE 83): 0.25
- Net absorbance Rep. 2 ([2]; 0.001 μM, TABLE 83): 0.26
- Activity (%) Repeat 1 ([2]; 0.001 μM, TABLE 85): 85%
- Activity (%) Repeat 2 ([2]; 0.001 μM, TABLE 85): 89%
- Inhibition (%) ([2]; 0.001 μM, TABLE 85): 13%
- Net Signal (Absorbance) Repeat 1 ([2]; 0.001 μM, TABLE 85): 0.27
- Net Signal (Absorbance) Repeat 2 ([2]; 0.001 μM, TABLE 85): 0.29
- Activity (%) Rep. 1 ([2]; 0.01 μM, TABLE 79): 49%
- Activity (%) Rep. 2 ([2]; 0.01 μM, TABLE 79): 56%
- CD39 Inhibition (%) ([2]; 0.01 μM, TABLE 79): 47%
- Net absorbance Rep. 1 ([2]; 0.01 μM, TABLE 79): 0.26
- Net absorbance Rep. 2 ([2]; 0.01 μM, TABLE 79): 0.30
- Activity (%) Rep. 1 ([2]; 0.01 μM, TABLE 80): 54%
- Activity (%) Rep. 2 ([2]; 0.01 μM, TABLE 80): 51%
- Inhibition (%) ([2]; 0.01 μM, TABLE 80): 47%
- Net absorbance Rep. 1 ([2]; 0.01 μM, TABLE 80): 0.154
- Net absorbance Rep. 2 ([2]; 0.01 μM, TABLE 80): 0.145
- Activity (%) Rep. 1 ([2]; 0.01 μM, TABLE 81): 36%
- Activity (%) Rep. 2 ([2]; 0.01 μM, TABLE 81): 37%
- Inhibition (%) ([2]; 0.01 μM, TABLE 81): 64%
- Net absorbance Rep. 1 ([2]; 0.01 μM, TABLE 81): 0.19
- Net absorbance Rep. 2 ([2]; 0.01 μM, TABLE 81): 0.20
- Activity (%) Rep. 1 ([2]; 0.01 μM, TABLE 83): 67%
- Activity (%) Rep. 2 ([2]; 0.01 μM, TABLE 83): 66%
- Inhibition (%) ([2]; 0.01 μM, TABLE 83): 33%
- Net absorbance Rep. 1 ([2]; 0.01 μM, TABLE 83): 0.20
- Net absorbance Rep. 2 ([2]; 0.01 μM, TABLE 83): 0.19
- Activity (%) Repeat 1 ([2]; 0.01 μM, TABLE 85): 65%
- Activity (%) Repeat 2 ([2]; 0.01 μM, TABLE 85): 68%
- Inhibition (%) ([2]; 0.01 μM, TABLE 85): 34%
- Net Signal (Absorbance) Repeat 1 ([2]; 0.01 μM, TABLE 85): 0.21
- Net Signal (Absorbance) Repeat 2 ([2]; 0.01 μM, TABLE 85): 0.22
- Activity (%) Rep. 1 ([2]; 0.1 μM, TABLE 79): 14%
- Activity (%) Rep. 2 ([2]; 0.1 μM, TABLE 79): 19%
- CD39 Inhibition (%) ([2]; 0.1 μM, TABLE 79): 84%
- Net absorbance Rep. 1 ([2]; 0.1 μM, TABLE 79): 0.08
- Net absorbance Rep. 2 ([2]; 0.1 μM, TABLE 79): 0.10
- Activity (%) Rep. 1 ([2]; 0.1 μM, TABLE 80): 26%
- Activity (%) Rep. 2 ([2]; 0.1 μM, TABLE 80): 26%
- Inhibition (%) ([2]; 0.1 μM, TABLE 80): 74%
- Net absorbance Rep. 1 ([2]; 0.1 μM, TABLE 80): 0.073
- Net absorbance Rep. 2 ([2]; 0.1 μM, TABLE 80): 0.073
- Activity (%) Rep. 1 ([2]; 0.1 μM, TABLE 81): 16%
- Activity (%) Rep. 2 ([2]; 0.1 μM, TABLE 81): 10%
- Inhibition (%) ([2]; 0.1 μM, TABLE 81): 87%
- Net absorbance Rep. 1 ([2]; 0.1 μM, TABLE 81): 0.08
- Net absorbance Rep. 2 ([2]; 0.1 μM, TABLE 81): 0.06
- Activity (%) Rep. 1 ([2]; 0.1 μM, TABLE 83): 30%
- Activity (%) Rep. 2 ([2]; 0.1 μM, TABLE 83): 29%
- Inhibition (%) ([2]; 0.1 μM, TABLE 83): 70%
- Net absorbance Rep. 1 ([2]; 0.1 μM, TABLE 83): 0.09
- Net absorbance Rep. 2 ([2]; 0.1 μM, TABLE 83): 0.09
- Activity (%) Repeat 1 ([2]; 0.1 μM, TABLE 85): 39%
- Activity (%) Repeat 2 ([2]; 0.1 μM, TABLE 85): 38%
- Inhibition (%) ([2]; 0.1 μM, TABLE 85): 61%
- Net Signal (Absorbance) Repeat 1 ([2]; 0.1 μM, TABLE 85): 0.13
- Net Signal (Absorbance) Repeat 2 ([2]; 0.1 μM, TABLE 85): 0.13
Molecule: POM-1
